According to publication PMC8486872, “A rational blueprint for the design of chemically-controlled protein switches” (Nature Communications, 2021):
Where “and” joins values, the source holds several entries; their conditions need not be identical. Equal entries are not always repeated.

How the values were obtained:
Format in all cases: cell-based
[1] = system: Gal4/UAS SEAP expression in HEK293T cells; assay: Drug specificity of CDH-TFs; conditions: Suppl Fig 7b
Protocol: Supplementary Figure 7: Dose-dependence and reversibility characterization of CDHs in CDH-
a) Background signal of SEAP reporter in the absence of the CDH-TF system. HEK239T cells were
(§1) transfected with SEAP reporter S132 and treated with 1 µM Drugs 12 hours post transfection.
(§2) Quantification of SEAP was performed 24 hours after drug treatment. b) Drug specificity of CDH-TFs. […]

[2] = system: SEAP and Luciferase expression in HEK293T cells; assay: MIMO designer cells (AIR-1/2-GEMS + CDH-3-TF); conditions: for SEAP: Fig5c, turn ON via AIR-2-GEMS
Text: We first engineered MIMO cells to respond to two drugs with distinct outputs (Fig. 5a) by co-transfecting the CDH-3-TF with either AIR-1-GEMS (Fig. 5b) or AIR-2-GEMS (Fig. 5c).
Fig. 5 Orthogonal chemical switches enable implementation of multi-input multi-output control modes in mammalian cells. a Scheme of multi-inputs multi-outputs (MIMO) designer cells where two drugs control two different outputs. b, c Cells were co-transfected with AIR-1/2-GEMS and CDH-3-TF regulate SEAP and Luciferase expression, respectively. […] AIR-1/2-GEMS coupled with SEAP expression circuits were co-transfected with CDH-1/2-TF circuits which control the Luciferase production. Respective drug concentrations ranged from 0.001 nM to 1 µM. All values presented are mean ± s.d. of three replicates and curves were fitted by four-parameters nonlinear regression. b, c, e, f, h, i Source data are available in the source data file.
Supplementary Figure 13: Orthogonal chemical switches enable implementation of multi-input multi-output control modes in mammalian cells. a) Dual drug toxicity tests in 293T cells. […]
concentrations of 1 nM, 10 nM, 100 nM and 1000 nM each drug in cell culture medium. CCK8 assay was performed 24 hours after drug treatment. Each bar represents the mean of three biological replicates ± s.d, overlaid with a scatter dot plot of the original data points. b-c) Cells were co-transfected with AIR-1-GEMS and CDH-3-TF regulate SEAP and Luciferase expression, respectively. Drug concentrations ranged from 0.001 nM to 1 µM and different combinations were added depending on the protein components, Drug-1 only (b) and Drug-3 only (c). d-e) Cells were co-transfected with AIR-2-GEMS and CDH-3-TF regulate SEAP and Luciferase expression, respectively. Drug concentrations ranged from 0.001 nM to 1 µM and different combinations were added depending on the protein […]
1-TF and CDH-3-TF circuits. Drug-1 concentrations ranged from 0.001 nM to 1 µM (left) and 1 µM Drug-1 with serial diluted Drug-3 from 0.001 nM to 1 µM (right). g) Quantification of SEAP activity controlled by CDH-1-GEMS and CDH-3-GEMS circuits. Drug-1 concentrations ranged from 0.001 nM to 1 µM (left) and Drug-3 dilution along with 1 µM Drug-1 (right). h-i) Quantification of SEAP and Luciferase activities under Drug-1. AIR-1-GEMS coupled with SEAP expression circuits (i) and CDH-1-TF circuits which control the Luciferase production (j). j-k) Quantification of SEAP and Luciferase activities under Drug-2. AIR-2-GEMS coupled with SEAP expression circuits (k) and CDH-2-TF circuits which control the Luciferase production (l). b-k) Each data point represents the mean of n = 3 biological replicates, and the dose-dependent curve were fitted using four-parameter nonlinear regression.

[3] = system: SEAP expression in HEK293T cells; assay: Background signal of SEAP reporter and single-construct controls
Protocol: Supplementary Figure 7: Dose-dependence and reversibility characterization of CDHs in CDH- […]
as §1, §2
Background signal of SEAP reporter in the absence of the CDH-GEMS system. HEK293T cells were transfected with pLS566 SEAP reporter plasmids and treated with drugs. Quantification of SEAP was performed 24 hours post drug treatment. f) SEAP activity upon transfecting single or paired […]
Quantification of SEAP activity of three CDHs with DMSO (dark color), specific (light color) and unspecific drug treatment (gray). […]
(culture medium) in panels of b, c, f and g were collected every 12 hours. Values were normalized to zero based on the SEAP expression at time 0. a, b, e, f, g) The bar charts show the mean ± s.d. of n = 3 biologically independent samples overlaid with a scatter dot plot of the original data points.

[4] = Suppl Fig 7a, TF reporter (S132) only
[5] = Suppl Fig 7e, GEMS reporter (pLS566) only
[6] = Fig5c SEAP via AIR-2-GEMS, four-parameter fit

**Q.** Which results are given for CN(C)CC#Cc1ccc(OCCCc2sc(N3CCc4cccc(C(=O)Nc5nc6ccccc6s5)c4C3)nc2C(=O)O)c(F)c1 [Drug-1, A-1155463]?
**A.** Reporter signal, drug specificity ([1]; CDH1): 10.7853 and 9.721 and 10.2555; Reporter signal, drug specificity ([1]; CDH3): 120.91 and 123.106 and 130.139; AIR-1-GEMS controlled SEAP expression ([2]; Fig S13b, Drug-1 0.01 nM): 2.034 U/L and 2.266 U/L and 2.426 U/L; CDH-3-TF controlled Luciferase expression ([2]; Fig S13b, Drug-1 0.01 nM): 63197 RLU and 77075 RLU and 76343 RLU; AIR-1-GEMS controlled SEAP expression ([2]; Fig S13b, Drug-1 0.1 nM): 2.577 U/L and 3.504 U/L and 1.937 U/L; CDH-3-TF controlled Luciferase expression ([2]; Fig S13b, Drug-1 0.1 nM): 69663 RLU and 84855 RLU and 75827 RLU; AIR-1-GEMS controlled SEAP expression ([2]; Fig S13b, Drug-1 1 nM): 2.677 U/L and 2.7744 U/L and 2.999 U/L; CDH-3-TF controlled Luciferase expression ([2]; Fig S13b, Drug-1 1 nM): 81097 RLU and 77144 RLU and 82001 RLU; AIR-1-GEMS controlled SEAP expression ([2]; Fig S13b, Drug-1 3.16 nM): 4.756 U/L and 3.455 U/L and 4.71 U/L; CDH-3-TF controlled Luciferase expression ([2]; Fig S13b, Drug-1 3.16 nM): 79328 RLU and 72559 RLU and 71332 RLU; AIR-1-GEMS controlled SEAP expression ([2]; Fig S13b, Drug-1 10 nM): 14.6262 U/L and 14.8753 U/L and 12.6214 U/L; CDH-3-TF controlled Luciferase expression ([2]; Fig S13b, Drug-1 10 nM): 80379 RLU and 81140 RLU and 95805 RLU; AIR-1-GEMS controlled SEAP expression ([2]; Fig S13b, Drug-1 31.6 nM): 24.9389 U/L and 23.1767 U/L and 24.3137 U/L; CDH-3-TF controlled Luciferase expression ([2]; Fig S13b, Drug-1 31.6 nM): 89062 RLU and 83795 RLU and 94983 RLU; AIR-1-GEMS controlled SEAP expression ([2]; Fig S13b, Drug-1 100 nM): 28.6367 U/L and 35.4252 U/L and 28.7763 U/L; CDH-3-TF controlled Luciferase expression ([2]; Fig S13b, Drug-1 100 nM): 85794 RLU and 82597 RLU and 83527 RLU; AIR-1-GEMS controlled SEAP expression ([2]; Fig S13b, Drug-1 316 nM): 33.0089 U/L and 34.8793 U/L and 29.7782 U/L; CDH-3-TF controlled Luciferase expression ([2]; Fig S13b, Drug-1 316 nM): 82096 RLU and 72932 RLU and 89789 RLU; AIR-1-GEMS controlled SEAP expression ([2]; Fig S13b, Drug-1 1000 nM): 37.3806 U/L and 38.9993 U/L and 31.1376 U/L; CDH-3-TF controlled Luciferase expression ([2]; Fig S13b, Drug-1 1000 nM): 73138 RLU and 75381 RLU and 85198 RLU; Reporter background signal [3, 4]: 2.1563 and 2.182 and 2.388; Reporter background signal [3, 5]: 2.888 and 3.062 and 3.039

**Q.** What does the source list for CC1(C)CCC(CN2CCN(c3ccc(C(=O)NS(=O)(=O)c4ccc(NCC5CCOCC5)c([N+](=O)[O-])c4)c(Oc4cnc5[nH]ccc5c4)c3)CC2)=C(c2ccc(Cl)cc2)C1 [Drug-2, Venetoclax]?
**A.** Reporter signal, drug specificity ([1]; CDH2): 31.2802 and 28.6812 and 29.088; Bottom (best-fit value) [2, 6]: 11.58; HillSlope (best-fit value) [2, 6]: 0.4637; Span (best-fit value) [2, 6]: 174.4; Top (best-fit value) [2, 6]: 186; logIC50 (best-fit value) ([2]; Fig5c SEAP via AIR-2-GEMS, four-parameter fit, drug in nM): 2.821; SEAP ([2]; 0.1 nM): 16.9661 U/L and 14.3649 U/L and 16.0293 U/L; SEAP ([2]; 0.5 nM): 32.7217 U/L and 18.5086 U/L and 20.3629 U/L; SEAP ([2]; 1 nM): 9.507 U/L and 8.828 U/L and 9.449 U/L; SEAP ([2]; 5 nM): 12.4048 U/L and 14.8898 U/L and 15.5553 U/L; SEAP ([2]; 10 nM): 53.9453 U/L and 51.1 U/L and 44.2357 U/L; SEAP ([2]; 50 nM): 67.8694 U/L and 53.3505 U/L and 65.0318 U/L; SEAP ([2]; 500 nM): 99.6195 U/L and 87.3604 U/L and 83.3391 U/L; SEAP ([2]; 1000 nM): 116.832 U/L; AIR-2-GEMS controlled SEAP expression ([2]; Fig S13d, Drug-2 0.01 nM): 59.8517 U/L and 85.418 U/L and 69.2527 U/L; CDH-3-TF controlled Luciferase expression ([2]; Fig S13d, Drug-2 0.01 nM): 46959 RLU and 46941 RLU and 46901 RLU; AIR-2-GEMS controlled SEAP expression ([2]; Fig S13d, Drug-2 0.1 nM): 118.67 U/L and 114.835 U/L and 107.758 U/L; CDH-3-TF controlled Luciferase expression ([2]; Fig S13d, Drug-2 0.1 nM): 41162 RLU and 49637 RLU and 46127 RLU; AIR-2-GEMS controlled SEAP expression ([2]; Fig S13d, Drug-2 1 nM): 115.899 U/L and 181.597 U/L and 152.021 U/L; CDH-3-TF controlled Luciferase expression ([2]; Fig S13d, Drug-2 1 nM): 45977 RLU and 44865 RLU and 47068 RLU; AIR-2-GEMS controlled SEAP expression ([2]; Fig S13d, Drug-2 3.14 nM): 134.444 U/L and 173.229 U/L and 165.776 U/L; CDH-3-TF controlled Luciferase expression ([2]; Fig S13d, Drug-2 3.14 nM): 43947 RLU and 39268 RLU and 39254 RLU; AIR-2-GEMS controlled SEAP expression ([2]; Fig S13d, Drug-2 10 nM): 190.854 U/L and 240.534 U/L and 260.228 U/L; CDH-3-TF controlled Luciferase expression ([2]; Fig S13d, Drug-2 10 nM): 47016 RLU and 49191 RLU and 50470 RLU; AIR-2-GEMS controlled SEAP expression ([2]; Fig S13d, Drug-2 31.4 nM): 299.546 U/L and 359.696 U/L and 315.099 U/L; CDH-3-TF controlled Luciferase expression ([2]; Fig S13d, Drug-2 31.4 nM): 45761 RLU and 44242 RLU and 45130 RLU; AIR-2-GEMS controlled SEAP expression ([2]; Fig S13d, Drug-2 100 nM): 326.848 U/L and 345.031 U/L and 379.553 U/L; CDH-3-TF controlled Luciferase expression ([2]; Fig S13d, Drug-2 100 nM): 45390 RLU and 42062 RLU and 45223 RLU; AIR-2-GEMS controlled SEAP expression ([2]; Fig S13d, Drug-2 314 nM): 491.977 U/L and 483.914 U/L and 518.642 U/L; CDH-3-TF controlled Luciferase expression ([2]; Fig S13d, Drug-2 314 nM): 40043 RLU and 38537 RLU and 34569 RLU; AIR-2-GEMS controlled SEAP expression ([2]; Fig S13d, Drug-2 1000 nM): 386.41 U/L and 334.548 U/L and 408.363 U/L; CDH-3-TF controlled Luciferase expression ([2]; Fig S13d, Drug-2 1000 nM): 40262 RLU and 37715 RLU and 45464 RLU; IC50 ([2]; Homo sapiens, HEK-293T, Fig5c SEAP turn ON via AIR-2-GEMS, four-parameter fit, given as IC50, read-out: IC50 (best-fit value)): 662 nM; Reporter background signal [3, 4]: 2.167 and 2.065 and 2.282; Reporter background signal [3, 5]: 2.782 and 3.488 and 3.279
